Reference: patent US9247759B2, “Identification of human T2R receptors that respond to bitter compounds that elicit the bitter taste in compositions, and the use thereof in assays to identify compounds that inhibit (block) bitter taste in compositions and use thereof” (SENOMYX, INC., priority 2007, dated 2016)
Where two headings read alike, the source gives them in different places.

Biological target: hT2R8 (Homo sapiens (Human), UniProt Q9NYW2)
Experiment: hT2R8 antagonist high-throughput FLIPR assay, stable cell line with G16g44, agonist andrographolide
Assay type: cell-based
Summary of the method: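 Antagonist screen: compounds co-applied with agonist andrographolide at 200 μM, a dose giving 70–80% of maximal hT2R8 activation. Fluorescence measured by FLIPR in a stable HEK293 line expressing both hT2R8 and the promiscuous G16g44 protein.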

[1] = read-out: IC50 on hT2R8 bitter receptor
[2] = table after Example 10-97, read-out: hT2R8 IC50
[3] = unit uM, read-out: IC50 on hT2R08 bitter receptor

hT2R8, sequence (Q9NYW2 whole entry): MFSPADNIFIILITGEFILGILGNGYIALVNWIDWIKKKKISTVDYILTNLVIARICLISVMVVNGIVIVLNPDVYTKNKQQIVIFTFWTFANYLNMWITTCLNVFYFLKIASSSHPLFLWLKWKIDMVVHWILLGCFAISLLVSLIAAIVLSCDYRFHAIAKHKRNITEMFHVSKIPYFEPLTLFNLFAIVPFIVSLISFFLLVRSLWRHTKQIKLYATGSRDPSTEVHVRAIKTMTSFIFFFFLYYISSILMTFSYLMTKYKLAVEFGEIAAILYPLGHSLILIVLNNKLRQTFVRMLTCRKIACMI

Row | Compound | IC50 [1] | IC50 [2] | IC50 [3]
1 | Cc1noc(C)c1Cn1cc(N2C(=O)N[C@H](Cc3ccccc3)C2=O)cn1 [Example 10-4, (R)-5-benzyl-3-(1-((3,5-dimethylisoxazol-4-yl)methyl)-1H-pyrazol-4-yl)imidazolidine-2,4-dione] | 0.11 µM | 0.112 µM | 
2 | Cc1noc(C)c1Cn1cc(N2C(=O)CN(Cc3cccc(C(=O)O)c3)C2=O)cn1 [Example 10-8, 3-((3-(1-((3,5-dimethylisoxazol-4-yl)methyl)-1H-pyrazol-4-yl)-2,4-dioxoimidazolidin-1-yl)methyl)benzoic acid] | 1.8 µM | 1.8 µM | 
3 | CNC(=O)c1cccc(CN2CC(=O)N(c3cnn(Cc4c(C)noc4C)c3)C2=O)c1 [Example 10-9, 3-((3-(1-((3,5-dimethylisoxazol-4-yl)methyl)-1H-pyrazol-4-yl)-2,4-dioxoimidazolidin-1-yl)methyl)-N-methylbenzamide] | 0.14 µM | 0.141 µM | 
4 | COCCOc1ccccc1CN1CC(=O)N(c2cnn(Cc3c(C)noc3C)c2)C1=O [Example 10-16, 3-(1-((3,5-dimethylisoxazol-4-yl)methyl)-1H-pyrazol-4-yl)-1-(2-(2-methoxyethoxy)benzyl)imidazolidine-2,4-dione] |  | 0.131 µM | 0.1 µM
5 | Cc1noc(C)c1Cn1cc(N2C(=O)CN(Cc3ccccc3[S+](C)[O-])C2=O)cn1 (stereo not shown) [Example 10-17, 33-(1-((3,5-dimethylisoxazol-4-yl)methyl)-1H-pyrazol-4-yl)-1-(2-(methylsulfinyl)benzyl)imidazolidine-2,4-dione] |  | 0.412 µM | 0.4 µM
6 | Cc1noc(C)c1Cn1cc(N2C(=O)CN(Cc3ccccc3C#N)C2=O)cn1 [Example 10-19, 2-((3-(1-((3,5-dimethylisoxazol-4-yl)methyl)-1H-pyrazol-4-yl)-2,4-dioxoimidazolidin-1-yl)methyl)benzonitrile] | 0.5 µM | 0.55 µM | 
7 | Cc1ccccc1CN1CC(=O)N(c2cnn(Cc3c(C)noc3C)c2)C1=O [Example 10-20, 3-(1-((3,5-dimethylisoxazol-4-yl)methyl)-1H-pyrazol-4-yl)-1-(2-methylbenzyl)imidazolidine-2,4-dione] |  | 0.133 µM | 0.1 µM
8 | Cc1noc(C)c1Cn1cc(N2C(=O)CN(Cc3ccccc3C(F)(F)F)C2=O)cn1 [Example 10-22, 3-(1-((3,5-dimethylisoxazol-4-yl)methyl)-1H-pyrazol-4-yl)-1-(2-(trifluoromethyl)benzyl)imidazolidine-2,4-dione] |  | 0.221 µM | 0.2 µM
9 | Cc1noc(C)c1Cn1cc(N2C(=O)CN(Cc3cccc(C=O)c3)C2=O)cn1 [Example 10-24, 3-((3-(1-((3,5-dimethylisoxazol-4-yl)methyl)-1H-pyrazol-4-yl)-2,4-dioxoimidazolidin-1-yl)methyl)benzaldehyde] |  | 0.201 µM | 0.2 µM
10 | Cc1noc(C)c1Cn1cc(N2C(=O)CN(Cc3cccc(C#N)c3)C2=O)cn1 [Example 10-25, 3-((3-(1-((3,5-dimethylisoxazol-4-yl)methyl)-1H-pyrazol-4-yl)-2,4-dioxoimidazolidin-1-yl)methyl)benzonitrile] |  | 1 µM | 1 µM
11 | Cc1noc(C)c1Cn1cc(N2C(=O)CN(Cc3cc(C)n(C)n3)C2=O)cn1 [Example 10-28, 1-((1,5-dimethyl-1H-pyrazol-3-yl)methyl)-3-(1-((3,5-dimethylisoxazol-4-yl)methyl)-1H-pyrazol-4-yl) imidazolidine-2,4-dione] |  | 0.322 µM | 0.3 µM
12 | COc1ccc(CN2CC(=O)N(c3cnn(Cc4c(C)noc4C)c3)C2=O)cc1 [Example 10-29, 3-(1-((3,5-dimethylisoxazol-4-yl)methyl)-1H-pyrazol-4-yl)-1-(4-methoxybenzyl)imidazolidine-2,4-dione] |  | 3.12 µM | 0.07 µM
13 | Cc1noc(C)c1Cn1cc(N2C(=O)CN(Cc3cccc(CO)c3)C2=O)cn1 [Example 10-33, 3-(1-((3,5-dimethylisoxazol-4-yl)methyl)-1H-pyrazol-4-yl)-1-(3-(hydroxymethyl)benzyl)imidazolidine-2,4-dione] |  | 0.322 µM | 0.3 µM
14 | Cc1noc(C)c1Cn1cc(N2C(=O)CN(Cc3ccccc3N)C2=O)cn1 [Example 10-34, 1-(2-aminobenzyl)-3-(1-((3,5-dimethylisoxazol-4-yl)methyl)-1H-pyrazol-4-yl)imidazolidine-2,4-dione] |  | 0.163 µM | 0.02 µM
15 | Cc1noc(C)c1Cn1cc(N2C(=O)CN(Cc3cccc(CN(C)C)c3)C2=O)cn1 [Example 10-37, 1-(3-((dimethylamino)methyl)benzyl)-3-(1-((3,5-dimethylisoxazol-4-yl)methyl)-1H-pyrazol-4-yl)imidazolidine-2,4-dione] |  | 1.22 µM | 1.2 µM

The next molecules have a lower IC50 [2] than those just listed; values first:

Row | IC50 [1] | IC50 [2] | IC50 [3] | Compound
16 | 0.09 µM | 0.102 µM |  | COC(=O)c1cccc(CN2CC(=O)N(c3cnn(Cc4c(C)noc4C)c3)C2=O)c1 [Example 10-7, methyl 3-((3-(1-((3,5-dimethylisoxazol-4-yl)methyl)-1H-pyrazol-4-yl)-2,4-dioxoimidazolidin-1-yl)methyl)benzoate]
17 |  | 0.09 µM | 0.08 µM | Cc1noc(C)c1Cn1cc(N2C(=O)CN(Cc3ccccc3F)C2=O)cn1 [Example 10-21, 3-(1-((3,5-dimethylisoxazol-4-yl)methyl)-1H-pyrazol-4-yl)-1-(2-fluorobenzyl)imidazolidine-2,4-dione]
18 |  | 0.087 µM | 0.1 µM | COc1ccc(CN2CC(=O)N(c3cnn(Cc4c(C)noc4C)c3)C2=O)cc1O [Example 10-13, 3-(1-((3,5-dimethylisoxazol-4-yl)methyl)-1H-pyrazol-4-yl)-1-(3-hydroxy-4-methoxybenzyl)imidazolidine-2,4-dione]
19 |  | 0.081 µM | 0.07 µM | Cc1noc(C)c1Cn1cc(N2C(=O)CN(Cc3ccccc3[N+](=O)[O-])C2=O)cn1 [Example 10-23, 3-(1-((3,5-dimethylisoxazol-4-yl)methyl)-1H-pyrazol-4-yl)-1-(2-nitrobenzyl)imidazolidine-2,4-dione]
20 | 0.07 µM | 0.073 µM |  | COc1cccc(CN2CC(=O)N(c3cnn(Cc4c(C)noc4C)c3)C2=O)c1 [Example 10-6, 3-(1-((3,5-dimethylisoxazol-4-yl)methyl)-1H-pyrazol-4-yl)-1-(3-methoxybenzyl)imidazolidine-2,4-dione]
21 |  | 0.071 µM | 0.07 µM | COCCOc1cccc(CN2CC(=O)N(c3cnn(Cc4c(C)noc4C)c3)C2=O)c1 [Example 10-14, 3-(1-((3,5-dimethylisoxazol-4-yl)methyl)-1H-pyrazol-4-yl)-1-(3-(2-methoxyethoxy)benzyl)imidazolidine-2,4-dione]
22 |  | 0.069 µM | 0.07 µM | Cc1noc(C)c1Cn1cc(N2C(=O)CN(Cc3ccccc3O)C2=O)cn1 [Example 10-11, 3-(1-((3,5-dimethylisoxazol-4-yl)methyl)-1H-pyrazol-4-yl)-1-(2-hydroxybenzyl)imidazolidine-2,4-dione]
23 |  | 0.065 µM | 0.06 µM | Cc1ccc(CN2CC(=O)N(c3cnn(Cc4c(C)noc4C)c3)C2=O)cc1 [Example 10-30, 3-(1-((3,5-dimethylisoxazol-4-yl)methyl)-1H-pyrazol-4-yl)-1-(4-methylbenzyl)imidazolidine-2,4-dione]
24 |  | 0.06 µM | 0.06 µM | COc1ccccc1CN1CC(=O)N(c2cnn(Cc3c(C)noc3C)c2)C1=O [Example 10-18, 3-(1-((3,5-dimethylisoxazol-4-yl)methyl)-1H-pyrazol-4-yl)-1-(2-methoxybenzyl)imidazolidine-2,4-dione]
25 |  | 0.058 µM | 0.06 µM | Cc1noc(C)c1Cn1cc(N2C(=O)CN(Cc3cccc(F)c3)C2=O)cn1 [Example 10-27, 3-(1-((3,5-dimethylisoxazol-4-yl)methyl)-1H-pyrazol-4-yl)-1-(3-fluorobenzyl)imidazolidine-2,4-dione]
26 |  | 0.053 µM | 0.07 µM | Cc1noc(C)c1Cn1cc(N2C(=O)CN(Cc3ccc4c(c3)OCO4)C2=O)cn1 [Example 10-36, 1-(benzo[d][1,3]dioxol-5-ylmethyl)-3-(1-((3,5-dimethylisoxazol-4-yl)methyl)-1H-pyrazol-4-yl)imidazolidine-2,4-dione]
27 |  | 0.051 µM | 0.06 µM | COc1ccc(CN2CC(=O)N(c3cnn(Cc4c(C)noc4C)c3)C2=O)cc1OC [Example 10-35, 1-(3,4-dimethoxybenzyl)-3-(1-((3,5-dimethylisoxazol-4-yl)methyl)-1H-pyrazol-4-yl)imidazolidine-2,4-dione]
28 |  | 0.048 µM | 0.05 µM | Cc1noc(C)c1Cn1cc(N2C(=O)CN(Cc3ccc(C#N)cc3)C2=O)cn1 [Example 10-32, 4-((3-(1-((3,5-dimethylisoxazol-4-yl)methyl)-1H-pyrazol-4-yl)-2,4-dioxoimidazolidin-1-yl)methyl)benzonitrile]
29 |  | 0.045 µM | 0.05 µM | Cc1noc(C)c1Cn1cc(N2C(=O)CN(Cc3ccc(F)cc3)C2=O)cn1 [Example 10-31, 3-(1-((3,5-dimethylisoxazol-4-yl)methyl)-1H-pyrazol-4-yl)-1-(4-fluorobenzyl)imidazolidine-2,4-dione]
30 |  | 0.043 µM | 0.06 µM | Cc1noc(C)c1Cn1cc(N2C(=O)CN(Cc3ccc(O)cc3)C2=O)cn1 [Example 10-12, 3-(1-((3,5-dimethylisoxazol-4-yl)methyl)-1H-pyrazol-4-yl)-1-(4-hydroxybenzyl)imidazolidine-2,4-dione]
31 |  | 0.019 µM | 0.02 µM | Cc1cccc(CN2CC(=O)N(c3cnn(Cc4c(C)noc4C)c3)C2=O)c1 [Example 10-26, 3-(1-((3,5-dimethylisoxazol-4-yl)methyl)-1H-pyrazol-4-yl)-1-(3-methylbenzyl)imidazolidine-2,4-dione]
32 |  | 0.016 µM | 0.03 µM | CSc1ccccc1CN1CC(=O)N(c2cnn(Cc3c(C)noc3C)c2)C1=O [Example 10-15, 3-(1-((3,5-dimethylisoxazol-4-yl)methyl)-1H-pyrazol-4-yl)-1-(2-(methylthio)benzyl)imidazolidine-2,4-dione]
